Read-outs that look alike come from different tables or passages of the source. Numbered stars: 1 amine (or outer) side, 2 acyl side, 3 side chain; on linkers, the order of the positions; unused ones are H or OH. Bridge positions count the residues as written; N and C are the ends. Square brackets hold non-standard residues; d marks the D form. Peptide text beside a SMILES is read from it. * marks the point of attachment. pTerphenylCO(4''-OnC5H11) = CCCCCOc1ccc(-c2ccc(-c3ccc(C(=O)*)cc3)cc2)cc1; Orn(4R-OH,5R-OH) = O=C([C@H](C[C@@H](O)[C@@H](O)N[*:3])N[*:1])[*:2]; hTyr(3S-OH,4S-OH) = N[C@H](C(=O)O)[C@H](O)[C@@H](O)c1ccc(O)cc1; Pro(3S-OH,4S-Me) = C[C@H]1CN[C@H](C(=O)O)[C@H]1O; Hyp = O=C(O)[C@@H]1C[C@@H](O)CN1
Columns and labels:
[1] = molecular target: SARS-CoV-2 PLpro (Severe acute respiratory syndrome coronavirus 2, UniProt P0DTD1); assay: biochemical
[2] = test system: SARS-CoV-2 virus; conditions: read-out: IC50, in-vitro antiviral activity against the SARS-CoV-2 virus; cited from earlier work

SMILES: CCCCCOc1ccc(-c2ccc(-c3ccc(C(=O)N[C@H]4C[C@@H](O)[C@@H](O)NC(=O)[C@@H]5[C@@H](O)[C@@H](C)CN5C(=O)[C@H]([C@@H](C)O)NC(=O)[C@H]([C@H](O)[C@@H](O)c5ccc(O)cc5)NC(=O)[C@@H]5C[C@@H](O)CN5C(=O)[C@H]([C@@H](C)O)NC4=O)cc3)cc2)cc1 [Anidulafungin] ({pTerphenylCO(4''-OnC5H11)}-[Orn(4R-OH,5R-OH)]T[Hyp][hTyr(3S-OH,4S-OH)]T[Pro(3S-OH,4S-Me)]; lactam 1-C)
- inhibitory activity against PLpro (in words) ([1]; Ubiquitin-Rhodamine 110 Gly fluorescence intensity assay): low inhibitory activity
- IC50 [2]: 4.64 µM

SMILES: Cc1cc2nc3c(=O)[nH]c(=O)nc-3n(C[C@H](O)[C@H](O)[C@H](O)COP(=O)(O)OP(=O)(O)OC[C@H]3O[C@@H](n4cnc5c(N)ncnc54)[C@H](O)[C@@H]3O)c2cc1C [FAD disodium]
- IC50 ([1]; read-out: IC50 against SARS-CoV-2 PLpro): 12.4 µM

SMILES: CC(C)(C)[C@@H]1NC(=O)O[C@@H]2CCC[C@H]2OC/C=C/C(F)(F)c2nc3ccccc3nc2O[C@@H]2C[C@@H](C(=O)N[C@]3(C(=O)NS(=O)(=O)C4(C)CC4)C[C@H]3C(F)F)N(C2)C1=O [Glecaprevir]
- IC50 [1]: 36.8 µM

SMILES: CO[C@H]1/C=C/O[C@@]2(C)Oc3c(C)c(O)c4c(O)c(c(/C=N/N5CCN(C6CCCC6)CC5)c(O)c4c3C2=O)NC(=O)/C(C)=C\C=C\[C@H](C)[C@H](O)[C@@H](C)[C@@H](O)[C@@H](C)[C@H](OC(C)=O)[C@@H]1C [Rifapentine]
- IC50 [1]: 15.2 µM
